Test results taken from patent US20240261302A1, “METHODS OF TREATING NEURODEGENERATIVE DISEASES OR CONDITIONS” (FloraScience Inc., priority 2023, published 2024).
Entries after “also recorded” stand apart in the source; their conditions may differ.

Assays:
[1] = tested on: HT22 cells; assay: Oxytosis/ferroptosis assay with erastin (Table 2); assay type: cell-based; settings: Mus musculus, HT-22; erastin as inducer; method not given; read-out: Observed EC50 erastin
[2] = tested on: HT22 cells; assay: Immunoblotting (Western blots) of protein levels; assay type: cell-based, mouse
Experimental: Cell Protein Extraction. HT22 cells were seeded onto 10 cm dishes at a density of 400,000 cells/dish in DMEM supplemented with 10% FBS and 1% antibiotics, and then exposed to the desired treatments. For total protein extracts, HT22 cells were washed with ice-cold phosphate buffered saline (PBS) and lysed with cell extraction buffer containing 10 mM Tris, pH 7.4, 100 mM NaCl, 1 mM EDTA, 1 mM EGTA, 1 mM NaF, 20 mM Na4P2O7, 2 mM Na3VO4, 1% Triton X-100, 10% glycerol, 0.1% sodium dodecyl sulfate (SDS), 0.5% sodium deoxycholate, a protease inhibitor cocktail, and a phosphatase inhibitor cocktail followed by centrifugation (14000 g) for 30 min at 4° C. For nuclear extracts, HT22 cells were washed with ice-cold PBS, incubated with a nuclear fractionation buffer containing 10 mM HEPES, pH 7.9, 10 mM KCl, 0.1 mM EDTA, 0.1 mM EGTA, 1 mM DTT, 1 mM Na3VO4, a protease inhibitor cocktail, and a phosphatase inhibitor cocktail on ice for 15 min, then Nonidet P-40 at a final concentration of 0.6% was added to the buffer. Cells were vortexed, and the nuclei pelleted by centrifugation (1000 g) for 10 min at 4° C. Nuclear proteins were extracted by sonication of the nuclear pellet in nuclear fractionation buffer followed by centrifugation (14000 g) for 30 min at 4° C. The resulting supernatants of total/nuclear protein extracts were stored at −80° C. until analysis. Concentrations of the harvested proteins were determined by the BCA protein assay.
Immunoblotting. Western blots were carried out as follows. Laemmli sample buffer with 2% β-mercaptoethanol was added to the samples and then boiled for 5 min prior to SDS-PAGE. Equal amounts of cellular protein for each sample (10 μg per lane) were resolved by 4-12% gradient Criterion XT Precast Bis-Tris Gels (Bio-Rad, Hercules, CA) and transferred onto PVDF membranes with a Trans-Blot Turbo System (Bio-Rad, Hercules, CA). The membranes were blocked with 5% skim milk in TBST (20 mM Tris buffer, pH 7.5, 0.5 M NaCl, 0.1% Tween 20) for 1 hr at room temperature and incubated overnight at 4° C. with the diluted primary antibody in 5% BSA in TBST. After washes with TBST, the membranes were incubated with horseradish peroxidase-conjugated goat anti-rabbit or anti-mouse secondary antibodies (Bio-Rad, Hercules, CA) diluted 1:5000 in 5% skim milk in TBST. For all primary antibodies, the same membrane was re-probed for β-actin or an antiserum reacting with the total protein. After additional washing, protein bands were detected using the SuperSignal West Pico PLUS Chemiluminescent Substrate, and visualized with a ChemiDoc MP Imaging System (Bio-Rad, Hercules, CA). Band density was quantified densitometrically with Image Lab software (Bio-Rad, Hercules, CA). Relative protein expression was normalized to ß-actin band density. Each Western blot was performed three to six times with independent protein samples (n=3−6).

[3] = tested on: HT22 cells; assay: Calcium Measurements (Fluo-4 AM, Rhod-2 AM); assay type: cell-based, mouse
Experimental: Calcium Measurements. HT22 cells were seeded onto 96-well black walled plates at a density of 5,000 cells/well in DMEM supplemented with 10% FBS and 1% antibiotics. After the desired treatments, Ca^2+ levels were detected with Fluo-4 AM (Ex/Em=494/516 nm) and Rhod-2 AM (Ex/Em=552/581 nm) calcium indicator dyes specific to cytosol and mitochondria, respectively. Fluorescence was measured on a SpectraMax M5 microplate reader. Experiments were performed according to the manufacturer's instructions. Data were normalized for total protein/well. Each condition was analyzed in sixteen wells per independent experiment (n=16). Results were presented as the percentage of the controls with vehicle alone. Results were verified by live-cell imaging under a fluorescence microscope.

[4] = tested on: SH-SY5Y neuroblastoma cells; assay: Mitochondrial Membrane Potential Assay (JC-10) in SH-SY5Y cells; assay type: cell-based; settings: 4 hr
Experimental: SH-SY5Y neuroblastoma cells were cultured in 1:1 (v/v) DMEM/F12 medium (Invitrogen, Cat #11330032, Carlsbad, CA) supplemented with 1% non-essential amino acids (Invitrogen, Cat #11140050), 10% FBS, and 1% antibiotics including penicillin and streptomycin. Cell cultures were incubated at 37° C. in a fully humidified atmosphere containing 10% CO2.
Mitochondrial Membrane Potential Assay. Cells seeded at 5,000 cells/well onto 96-well black walled plates were treated with test compounds at the desired concentrations under the culture condition described above. The mitochondrial uncoupler FCCP at 2 μM was used as a reference control. After the desired treatments for 4 hr, the cells were subjected to a JC-10 mitochondrial membrane potential assay according to the manufacturer's instruction. Fluorescence intensities (Ex/Em=490/525 nm, and Ex/Em=540/590 nm) of each well were monitored on a SpectraMax M5 microplate reader. The ratio of fluorescence intensity (590/525 nm) was used to determine the mitochondrial membrane potential (ΔΨm). Decreasing ratios indicate mitochondrial membrane depolarization. Samples were analyzed in eight to sixteen wells per independent experiment (n=8-16). Results were verified by live-cell imaging under a fluorescence microscope.

[5] = tested on: HT22 cells; assay: MitoTracker Assay (mitochondrial mass); assay type: cell-based, mouse
Experimental: MitoTracker Assay. HT22 cells were seeded onto 96-well black walled plates at a density of 5,000 cells/well in DMEM supplemented with 10% FBS and 1% antibiotics. After the desired treatments, MitoTracker Orange CM−H2TMRos (Ex/Em=554/576 nm) and Hoechst 33342 (Ex/Em=360/460 nm) dyes were added to the cells and incubated under the same culture condition for 2 hr. Fluorescence was measured on a SpectraMax M5 microplate reader. Experiments were performed according to the manufacturer's instructions. Data were normalized for total protein/well. Each condition was analyzed in sixteen wells per independent experiment (n=16). Results were presented as the percentage of the controls with vehicle alone. Results were verified by live-cell imaging under a fluorescence microscope.

[6] = tested on: HT22 mt-GFP WT cells; assay: Cell viability after RSL3 with/without FCCP (CyQUANT DNA-based assay, fluorescence microscopy), mt-GFP WT cells; design: species or system mouse

SMILES: CCCCCc1cc(O)c2c(c1)OC(C)(C)c1ccc(C)cc1-2 [CBN, 6,6,9-Trimethyl-3-pentyl-benzo[c]chromen-1-ol]
- EC50 [1]: 2.5 µM
- DRP1 and MFF levels, co-treatment with RSL3 [2]: restored DRP1 levels but not MFF levels
- MFF and DRP1 expression, compound alone [2]: significantly enhanced the expression of MFF but not DRP1
- OPA1 and MFN2 expression, co-treatment with RSL3 [2]: enhanced the expression of OPA1 but not MFN2
- PGC-1α and TFAM levels, compound alone [2]: no apparent effects
- RSL3-induced decrease of SIRT1, pAMPK/AMPK, PGC-1α, NRF1, TFAM [2]: prevented
- protein expression of OXPHOS complexes I, II, III and V, compound alone [2]: did not exert obvious effects
- protein expression of SIRT1, pAMPK(Thr172)/AMPK and NRF1, compound alone [2]: upregulated
- RSL3-induced upregulation of OXPHOS complexes ([2]; 50 nM RSL3): inhibited
- effect on ATF4 with RSL3 ([2]; 5 μM CBN, 50 nM RSL3): not significant
- protein levels of Nrf2, HO-1, SOD2 and GPX4 with RSL3 ([2]; 5 μM CBN, 50 nM RSL3): at levels similar to the control cells
- protein levels of Nrf2, HO-1, SOD2 and GPX4, compound alone ([2]; 5 μM, 16 h): upregulation
- MCU expression, compound alone ([2]; 5 μM, 16 hr): reduced basal MCU expression
- RSL3-induced HSP60 upregulation ([2]; 16 h): suppressed
- VDAC level, compound alone ([2]; 16 h): upregulated
- OPA1 and MFN2 levels, compound alone ([2]; 16 hr): upregulated
- RSL3-induced MCU upregulation ([2]; p<0.0001): prevented this increase
- RSL3-induced VDAC decrease ([2]; p<0.0001): prevented
- protein level of OXPHOS complex IV, compound alone ([2]; p<0.0001): reduced
- Ca^2+ in cytosol and mitochondria, compound alone ([3]; 5 μM, 16 hr): did not affect Ca^2+ influx
- Ca^2+ levels in cytosol and mitochondria with RSL3 ([3]; pretreatment 1 hr, co-incubation with RSL3): maintained basal Ca^2+ levels
- decrease of ΔΨm [4]: also observed
- increase of MitoTracker fluorescence (mitochondrial mass) ([5]; 5 μM, 16 hr, vs control group): 4.9%
- mitochondrial mass with RSL3 ([5]; RSL3-induced oxytosis/ferroptosis): preserve the mitochondrial mass at the control level
- protection against RSL3-induced cell death, no FCCP pretreatment ([6]; 16 hr): strong and equivalent protection
- protection against RSL3 after FCCP pretreatment ([6]; FCCP 5 μM 24 hr, then 16 hr): protected; also recorded: protective
- cell numbers after FCCP pretreatment, co-treatment with compound ([6]; FCCP 24 hr, CBN additional 16 hr): did not further change the cell numbers
